Reference: ChEMBL document CHEMBL1141738, “Antihyperglycemic effects of N-containing sugars from Xanthocercis zambesiaca, Morus bombycis, Aglaonema treubii, and Castanospermum australe in streptozotocin-diabetic mice” (1998)
Activity calls are given as the source filed them. No cut-off for these calls is given here.

Legend:
Mus musculus [1] = experiment: Antihyperglycemic effect in STZ-diabetic ddY mouse assessed as reduction in blood glucose level at 150 umol/kg, ip after 4 to 6 hrs by glucose oxidase method; format: functional, organism-based
Mus musculus [2] = experiment: Antihyperglycemic effect on STZ-diabetic ddY mouse assessed as increase in plasma insulin level at 300 umol/kg, ip after 30 mins by ELISA; format: functional
Mus musculus [3] = experiment: Antihyperglycemic effect on STZ-diabetic ddY mouse assessed as increase in plasma insulin level at 300 umol/kg, ip after 2 hrs by ELISA; format: functional
Pancreas [4] = experiment: Potentiation of 8.3 mM glucose-induced immunoreactive insulin release in perfused Wistar rat pancreas at 1 mM by radioimmunoassay; format: functional, tissue-based
Pancreas [5] = experiment: Potentiation of 8.3 mM glucose-induced immunoreactive insulin release in perfused Wistar rat pancreas by radioimmunoassay; format: functional, tissue-based
Mus musculus [6] = experiment: Antihyperglycemic effect in STZ-diabetic ddY mouse assessed as reduction in blood glucose level at 150 umol/kg, ip after 2 hrs by glucose oxidase method; format: functional, organism-based; conditions: TDE = time-dependent effect
Mus musculus [7] = experiment: Antihyperglycemic effect in STZ-diabetic ddY mouse assessed as reduction in blood glucose level at 30 umol/kg, ip after 6 hrs by glucose oxidase method; format: functional
Mus musculus [8] = experiment: Antihyperglycemic effect in STZ-diabetic ddY mouse assessed as reduction in blood glucose level at 150 umol/kg, ip after 4 hrs by glucose oxidase method; format: functional, organism-based
Mus musculus [9] = organism: Mus musculus; experiment: Antihyperglycemic effect on STZ-diabetic ddY mouse assessed as reduction in blood glucose level by glucose oxidase method; format: functional, organism-based

O[C@H]1[C@H](O)[C@@H](O)CN2CC[C@H](O)[C@H]12
Activity (Mus musculus [1]): Active

OC[C@H]1NCC[C@@H](O)[C@@H]1O [FAGOMINE]
Activity (Mus musculus [2]): 454 pg/mL
Activity (Mus musculus [3]): 560 pg/mL
Activity (Pancreas [4]): Active
Activity (Pancreas [5]): Dose-dependent effect
Activity (Mus musculus [6]): tde

COc1ccc(Cl)cc1C(=O)NCCc1ccc(S(=O)(=O)NC(=O)NC2CCCCC2)cc1 [GLYBURIDE]
Activity (Mus musculus [7]): 138 mg/dL

OC[C@H]1N[C@H](CO)[C@@H](O)[C@@H]1O
Activity (Mus musculus [8]): Active

OC[C@H]1NCC[C@@H](O)[C@@H]1O[C@@H]1O[C@H](CO)[C@@H](O)[C@H](O)[C@H]1O
Activity (Mus musculus [9]): Dose-dependent effect
